Test results from patent publication US11298298B2, “Method for producing nonaqueous composition for external use on skin” (CHANEL PARFUMS BEAUTE, priority 2017, dated 2022).

Experiment: Particle size measurement by dynamic light scattering
Assay type: physicochemical
Conditions: steps (a) to (c) without palmitoyl-L-carnitine chloride
Protocol: [1] Particle Size Measurement
The particle size of particles contained in the nonaqueous composition for external use on the skin 1 week after preparation was measured by the dynamic light scattering method. Specifically, the measurement was performed on the number mode using a nanoparticle analysis system (Zetasizer Nano ZSP model manufactured by Malvern Instruments Ltd.).

Substance: sucrose erucic acid ester
- Particle size of composition containing particles of the surfactant alone: about 2.5 nm
